PubChem BioAssay (NCI)
Several values for one entry are separate records, joined by “and”; a condition that tells them apart may be missing. Identical values can stand only once.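 Dose response: 5 concentrations. Exposure: 48 h. Format: 96-well plates. Endpoint: linear interpolation; highest concentration if not reached. Here, GI50 denotes the concentration required for 50% inhibition of growth. The concentration for full growth arrest is given as TGI.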

Key:
Assay in all cases: NCI anticancer screen, dose series, 48 h
[1] = test system: K-562 leukemia
[2] = test system: SNB-75 CNS
[3] = test system: SK-MEL-5 melanoma
[4] = test system: SF-539 CNS
[5] = test system: A549 NSCLC
[6] = test system: NCI-H226 lung
[7] = test system: KM12 colon
[8] = test system: MOLT-4 leukemia
[9] = test system: MCF7 breast
[10] = test system: UACC-62 melanoma

| SMILES | GI50 [1] | TGI [1] | GI50 [2] | TGI [2] | GI50 [3] | TGI [3] | GI50 [4] | TGI [4] | GI50 [5] | TGI [5] | GI50 [6] | TGI [6] | GI50 [7] | TGI [7] | GI50 [8] | TGI [8] | GI50 [9] | TGI [9] | GI50 [10] | TGI [10] |
| --- | --- | --- | --- | --- | --- | --- | --- | --- | --- | --- | --- | --- | --- | --- | --- | --- | --- | --- | --- | --- |
| CNC(=O)c1ccccc1Nc1nc(Nc2ccc3c(c2OC)CCC[C@H](N2CCN(CCO)CC2)C3)ncc1Cl | 2.25 µM and 2.51 µM | 5.94 µM and 8.55 µM | 1.88 µM and 2.49 µM | 12.6 µM and > 10 µM | 1.74 µM and 1.64 µM | 4.87 µM and 5.19 µM | 1.95 µM and 4.38 µM | 5.31 µM and > 10 µM | 1.45 µM and 1.44 µM | 10.2 µM and > 10 µM | 7.65 µM and 2.57 µM | 20.8 µM and > 10 µM | 3.04 µM and 3.23 µM | 11.2 µM and > 10 µM | 2.45 µM and 2.82 µM | 6.75 µM and > 10 µM | 0.37 µM and 0.374 µM | 11.2 µM and > 10 µM | 1.58 µM and 1.35 µM | 4.02 µM and 3.39 µM |
| CCn1c(-c2nonc2N)nc2c(N3CCCC3)nccc21 | 10.3 µM | > 25 µM | 10.3 µM | > 25 µM | 19 µM | > 25 µM | 10.8 µM | > 25 µM | 13.2 µM | > 25 µM | 10 µM | > 25 µM | 15.7 µM | > 25 µM | 10.5 µM | > 25 µM | 5.27 µM | > 25 µM | 16.2 µM | > 25 µM |
| N#Cc1cccc(N2C(=O)C3C4C=CC(C3C2=O)C2C(=O)N(c3cccc(C#N)c3)C(=O)C42)c1 (stereo not given) |  | 55.8 µM |  | 17.6 µM |  | > 63.1 µM |  | 61.4 µM |  | > 63.1 µM |  | > 63.1 µM |  | > 56.2 µM |  | 50.2 µM |  | > 100 µM |  | > 100 µM |
| Cc1ccc(C(=O)NC2CC2)cc1-c1ccc2[nH]ncc2c1 | > 22 µM | > 25 µM | > 13 µM | > 25 µM | > 25 µM | > 25 µM | > 25 µM | > 25 µM | > 25 µM | > 25 µM | > 25 µM | > 25 µM | > 25 µM | > 25 µM | > 25 µM | > 25 µM | > 25 µM | > 25 µM | > 25 µM | > 25 µM |
| O=C1NC(c2ccccc2)C2(C(=O)O)CN(C3CC3)c3cc(N4CCNCC4)c(F)cc3C2N1 (stereo not given) | > 100 µM | > 100 µM | > 100 µM | > 100 µM | > 100 µM | > 100 µM | > 100 µM | > 100 µM | > 100 µM | > 100 µM | > 100 µM | > 100 µM | > 100 µM | > 100 µM | > 100 µM | > 100 µM | > 100 µM | > 100 µM | > 100 µM | > 100 µM |
| NC(Cc1ccccc1)c1nccs1 (stereo not given) |  | > 100 µM |  | > 100 µM |  | > 100 µM |  | > 100 µM |  | > 100 µM |  | > 100 µM |  | > 100 µM |  | > 100 µM |  | > 100 µM |  | > 100 µM |
| Cc1cc(O)c(-c2ccc([C@@H](C)CN(C)C)cc2)c2c1[nH]c(=O)c1sccc12 | 0.482 µM | > 60.5 µM | 0.206 µM | 3.02 µM | 0.805 µM | 3.98 µM | 0.219 µM | 1.97 µM | 0.647 µM | 14.6 µM | 1.75 µM | 18.4 µM | 0.482 µM | 6.71 µM | 1.69 µM | 17.7 µM | 0.103 µM | 3.14 µM | 1.32 µM | 4.99 µM |
| COC(=O)N[C@H]1CCc2c(Cl)c(OC)c(OC)c(OC)c2-c2ccc(SC)c(=O)cc21 | < 0.01 µM | > 43.9 µM | < 0.01 µM | > 81.2 µM | < 0.01 µM | < 0.0127 µM | < 0.01 µM | < 0.01 µM | < 0.01 µM | > 100 µM | < 0.01 µM | 14.2 µM | < 0.01 µM | 18.8 µM | < 0.01 µM | > 76.8 µM | < 0.01 µM | > 37.4 µM | < 0.01 µM | 20.1 µM |
| COc1ccc(-c2cc(=O)c3c(O)c(OC)c(OC)c(OC)c3o2)cc1 |  | > 100 µM |  | > 56.3 µM |  | > 100 µM |  | > 100 µM |  | > 100 µM |  | > 100 µM |  | 44.4 µM |  | > 100 µM |  | > 100 µM |  | > 100 µM |
| N#CC1=C(N)NC(=O)NC12Nc1ccccc1N2 | > 100 µM | > 100 µM | 45.2 µM | > 100 µM | > 100 µM | > 100 µM | > 100 µM | > 100 µM | > 100 µM | > 100 µM | > 100 µM | > 100 µM | > 100 µM | > 100 µM | > 100 µM | > 100 µM | > 100 µM | > 100 µM | > 100 µM | > 100 µM |
